In patent US20220220128A1, “HETEROCYCLIC COMPOUNDS AS KINASE INHIBITORS, COMPOSITIONS COMPRISING THE HETEROCYCLIC COMPOUND, AND METHODS OF USE THEREOF” (JS Innopharm (Shanghai) Ltd, priority 2019, published 2022) one finds IC50 and GI50 data, which are given here for 18 molecules.

One test has as its target T1, human RET kinase (Homo sapiens, UniProt P07949).
T1 construct: purchased Carna 08-159
In words: RET Kinase Assay (LanthaScreen TR-FRET enzymatic assay). Format: biochemical. The following applies: 7 nM RET, 23 μM ATP. In short, it runs like this:
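Human RET (7 nM) preincubated 15 min with compound in 50 mM HEPES pH 7.5, 0.0015% Brij-35, then reacted with 3 μM FAM-P2 peptide and 23 μM ATP for 1 h at 28° C.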
For orientation: Time-resolved FRET reads energy transfer from a long-lived donor to a nearby acceptor.

Another test concerns the target T2, BAF3-KIF5B-RET cells (Homo sapiens, UniProt P07949).
T2 construct: fused on or other part: P33176 (Kinesin-1 heavy chain)
In words: BAF3-KIF5B-RET Cell proliferation assay (CellTiter-Glo, 72 hours). Format: cell-based. The conditions noted are these: growth inhibition, read-out: BA/F3-KIF5B-RET Cellular activity. As for the experimental part: Compounds disclosed herein were tested for the inhibition of RET by a cancer cell proliferation assay commonly known as CellTiter-Glo assay. In this assay, a complete media was prepared by adding 10% fetal bovine serum to RPMI-1640 medium (Life technology) for BAF3-FIF5B-RET cells. BAF3-KIF5B-RET cells were added to each of 88 wells of a 96 well plate at a seeding density of 2,000 cells/well/95 μL. The cells were allowed to attach to the plate by incubating at 37° C. for 24 hours. The compound was dissolved in DMSO (SIGMA). A solution of test compound was prepared in complete media by serial dilution to obtain the following concentrations: 20 μM, 6.67 μM, 2.22 μM, 0.74 μM, 0.25 μM, 0.082 μM, 0.027 μM, 0.0091 μM and 0.0030 μM. The test compound solution (5 μL) was added to each of 80 cell-containing wells. The final concentrations of the compound were following: 1 μM, 0.33 μM, 0.11 μM, 0.037 μM, 0.012 μM, 0.0041 μM, 0.0014 μM, 0.00046 μM and 0.00015 μM. The final concentration of DMSO is 0.1%. To the 8 remaining cell-containing wells, only complete media (containing 0.1% DMSO) was added to form a control group in order to measure maximal proliferation. To the remaining 8 empty wells, complete media was added to for a vehicle control group in order to measure background. The plates were incubated at 37° C. for 72 hours. 50 μl of CellTiter-Glo® Reagent was added to each well. Mix contents for 2 minutes on an orbital shaker to induce cell lysis. Incubate at room temperature for 10 minutes to stabilize luminescent signal. Record luminescence on Paradigm. Cell viability (CV %) was calculated relative to vehicle (DMSO) treated control wells. The IC50 was calculated using GraphPad Prism.
For orientation: ATP-based viability assays read luminescence as a measure of living cells.

Structures are written as SMILES.

T1 sequence (P07949 29-1114): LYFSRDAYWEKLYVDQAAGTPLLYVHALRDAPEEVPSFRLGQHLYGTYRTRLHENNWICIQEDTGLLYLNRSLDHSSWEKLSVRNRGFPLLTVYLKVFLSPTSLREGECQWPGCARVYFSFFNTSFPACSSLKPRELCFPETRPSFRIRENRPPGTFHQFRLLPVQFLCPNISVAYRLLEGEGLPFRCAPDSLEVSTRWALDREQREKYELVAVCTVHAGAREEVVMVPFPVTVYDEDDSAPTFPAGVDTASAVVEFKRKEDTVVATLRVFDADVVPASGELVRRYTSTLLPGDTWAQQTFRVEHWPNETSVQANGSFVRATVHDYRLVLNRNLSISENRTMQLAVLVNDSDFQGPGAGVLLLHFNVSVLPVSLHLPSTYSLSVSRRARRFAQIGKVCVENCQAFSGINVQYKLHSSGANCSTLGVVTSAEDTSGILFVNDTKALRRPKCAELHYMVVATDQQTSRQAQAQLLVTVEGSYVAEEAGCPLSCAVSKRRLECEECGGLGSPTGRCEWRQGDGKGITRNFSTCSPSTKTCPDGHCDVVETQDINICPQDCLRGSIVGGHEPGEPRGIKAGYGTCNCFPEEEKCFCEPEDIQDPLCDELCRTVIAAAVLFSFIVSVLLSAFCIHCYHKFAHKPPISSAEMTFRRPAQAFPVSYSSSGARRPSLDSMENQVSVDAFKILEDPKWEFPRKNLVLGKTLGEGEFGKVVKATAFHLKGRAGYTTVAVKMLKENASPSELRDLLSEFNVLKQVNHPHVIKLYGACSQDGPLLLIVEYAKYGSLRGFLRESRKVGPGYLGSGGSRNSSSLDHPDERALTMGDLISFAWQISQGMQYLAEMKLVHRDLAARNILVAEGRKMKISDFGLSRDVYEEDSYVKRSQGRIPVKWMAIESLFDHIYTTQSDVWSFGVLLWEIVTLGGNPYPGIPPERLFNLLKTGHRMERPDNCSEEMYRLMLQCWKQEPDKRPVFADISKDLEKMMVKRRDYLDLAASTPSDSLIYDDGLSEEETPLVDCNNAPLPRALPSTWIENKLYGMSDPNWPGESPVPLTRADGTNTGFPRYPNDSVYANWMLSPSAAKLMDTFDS
T2 sequence (P07949 whole entry, change not shown, the tested form may be a part): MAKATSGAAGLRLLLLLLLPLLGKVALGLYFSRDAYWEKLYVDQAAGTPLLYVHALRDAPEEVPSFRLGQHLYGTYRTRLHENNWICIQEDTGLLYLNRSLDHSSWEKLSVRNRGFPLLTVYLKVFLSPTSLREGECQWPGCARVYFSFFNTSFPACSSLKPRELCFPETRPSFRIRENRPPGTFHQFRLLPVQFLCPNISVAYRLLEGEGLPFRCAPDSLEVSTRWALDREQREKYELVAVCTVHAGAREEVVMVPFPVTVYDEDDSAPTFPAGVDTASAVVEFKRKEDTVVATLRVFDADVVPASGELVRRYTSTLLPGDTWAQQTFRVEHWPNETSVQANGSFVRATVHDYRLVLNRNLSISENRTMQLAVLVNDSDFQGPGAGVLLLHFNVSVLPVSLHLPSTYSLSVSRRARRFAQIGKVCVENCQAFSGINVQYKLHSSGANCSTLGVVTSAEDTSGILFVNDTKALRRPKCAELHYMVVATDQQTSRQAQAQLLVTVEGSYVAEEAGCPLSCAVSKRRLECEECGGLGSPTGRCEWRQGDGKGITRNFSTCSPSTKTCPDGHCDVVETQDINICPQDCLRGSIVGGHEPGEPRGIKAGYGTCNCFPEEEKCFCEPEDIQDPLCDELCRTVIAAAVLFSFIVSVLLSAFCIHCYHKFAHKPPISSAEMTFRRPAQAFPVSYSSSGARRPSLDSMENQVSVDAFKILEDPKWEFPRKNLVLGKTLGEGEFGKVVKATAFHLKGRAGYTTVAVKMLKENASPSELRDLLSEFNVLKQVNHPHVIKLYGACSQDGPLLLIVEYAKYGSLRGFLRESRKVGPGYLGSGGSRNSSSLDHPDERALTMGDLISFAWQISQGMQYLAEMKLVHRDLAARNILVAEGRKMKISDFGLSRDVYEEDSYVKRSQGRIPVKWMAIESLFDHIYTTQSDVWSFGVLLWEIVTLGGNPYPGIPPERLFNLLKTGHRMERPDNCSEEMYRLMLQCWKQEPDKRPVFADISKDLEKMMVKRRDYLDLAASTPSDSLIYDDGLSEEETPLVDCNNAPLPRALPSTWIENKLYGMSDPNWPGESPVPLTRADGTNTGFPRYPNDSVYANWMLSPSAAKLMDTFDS

`COc1ccc(CC(=O)N[C@H]2[C@@H]3CN(c4ccc(-c5cc(OCC(C)(C)O)cn6ncc(C#N)c56)cn4)C[C@@H]32)cn1` [Example 190, N-((1R,5S,6s)-3-(5-(3-cyano-6-(2-hydroxy-2-methylpropoxy)pyrazolo[1,5-a]pyridin-4-yl)pyridin-2-yl)-3-azabicyclo[3.1.0]hexan-6-yl)-2-(6-methoxypyridin-3-yl)acetamide] had an IC50 at human RET kinase of 50 to 100 nM. Also, the GI50 at BAF3-KIF5B-RET cells is greater than 100 nM.
Consider `CC(C)(O)COc1cc(-c2cnc(N3C4CC5CC3CC(O)(C5)C4)cn2)c2c(C#N)cnn2c1` [Example 157, 4-(5-((1R,3S,5s,7s)-5-hydroxy-2-azaadamantan-2-yl)pyrazin-2-yl)-6-(2-hydroxy-2-methylpropoxy)pyrazolo[1,5-a]pyridine-3-carbonitrile], for which, on human RET kinase, the IC50 fell in the range of 10 to 50 nM. For the same molecule, the GI50 on BAF3-KIF5B-RET cells is greater than 100 nM.
With `CC(C)(O)COc1cc(-c2cnc(N3C4CC5CC3CC(N)(C5)C4)cn2)c2c(C#N)cnn2c1` [Example 162, 4-(5-((1R,3S,5s,7s)-5-amino-2-azaadamantan-2-yl)pyrazin-2-yl)-6-(2-hydroxy-2-methylpropoxy)pyrazolo[1,5-a]pyridine-3-carbonitrile], at human RET kinase, the IC50 was in the range of 10 to 50 nM. Besides, the GI50 at BAF3-KIF5B-RET cells was greater than 100 nM.
Consider `COc1ccc(C(C)N2C[C@H]3CN(c4cnc(-c5cc(OCC(C)(C)O)cn6ncc(C#N)c56)cn4)C[C@H]3C2)cn1` (stereo partly drawn) [Example 176, 6-(2-hydroxy-2-methylpropoxy)-4-(5-((3aR,6aS)-5-(1-(6-methoxypyridin-3-yl)ethyl)hexahydropyrrolo[3,4-c]pyrrol-2(1H)-yl)pyrazin-2-yl)pyrazolo[1,5-a]pyridine-3-carbonitrile], for which the IC50 at human RET kinase lay within 50 to 100 nM. Moreover, the GI50 at BAF3-KIF5B-RET cells is greater than 100 nM.
For `CC(C)(O)COc1cc(-c2cnc(N3C4CC5CC3CC(NC=O)(C5)C4)cn2)c2c(C#N)cnn2c1` [Example 160, N-((1R,3S,5s,7s)-2-(5-(3-cyano-6-(2-hydroxy-2-methylpropoxy)pyrazolo[1,5-a]pyridin-4-yl)pyrazin-2-yl)-2-azaadamantan-5-yl)formamide], in that order: 10 to 50 nM and greater than 100 nM.
The like results for `COc1cccnc1C(=O)N[C@]1(C)C[C@H]2CN(c3cnc(-c4cc(-c5cnn(C)c5)cn5ncc(C#N)c45)cn3)C[C@H]2C1` [Example 151, N-((3aR,5s,6aS)-2-(5-(3-cyano-6-(1-methyl-1H-pyrazol-4-yl)pyrazolo[1,5-a]pyridin-4-yl)pyrazin-2-yl)-5-methyloctahydrocyclopenta[c]pyrrol-5-yl)-3-methoxypicolinamide] were, in that order, no more than 10 nM and no more than 10 nM.
The like results for `COc1ccc(C(=O)NC23CC4CC(C2)N(c2cnc(-c5cc(-c6cnn(C)c6)cn6ncc(C#N)c56)cn2)C(C4)C3)cn1` [Example 165, N-((1R,3S,5s,7s)-2-(5-(3-cyano-6-(1-methyl-1H-pyrazol-4-yl)pyrazolo[1,5-a]pyridin-4-yl)pyrazin-2-yl)-2-azaadamantan-5-yl)-6-methoxynicotinamide] were, in that order, no more than 10 nM and no more than 10 nM.
With `COc1ccnc(C(=O)NC[C@@H]2[C@H]3CN(c4ccc(-c5cc(-c6cnn(C)c6)cn6ncc(C#N)c56)cn4)C[C@@H]23)c1` [Example 193, N-(((1R,5S,6s)-3-(5-(3-cyano-6-(1-methyl-1H-pyrazol-4-yl)pyrazolo[1,5-a]pyridin-4-yl)pyridin-2-yl)-3-azabicyclo[3.1.0]hexan-6-yl)methyl)-4-methoxypicolinamide], the IC50 against human RET kinase was no more than 10 nM. For the same molecule, at BAF3-KIF5B-RET cells, the GI50 is no more than 10 nM.
`COc1ccc(C(=O)N2[C@@H]3CC[C@H]2[C@H]2CN(c4ccc(-c5cc(OCC(C)(C)O)cn6ncc(C#N)c56)cn4)C[C@H]23)cn1` [Example 174, 6-(2-hydroxy-2-methylpropoxy)-4-(6-((3aR,4S,7R,7aS)-8-(6-methoxynicotinoyl)hexahydro-1H-4,7-epiminoisoindol-2(3H)-yl)pyridin-3-yl)pyrazolo[1,5-a]pyridine-3-carbonitrile]: the IC50 against human RET kinase was no more than 10 nM. For the same molecule, the GI50 at BAF3-KIF5B-RET cells is 10 to 50 nM.
The like results for `COc1ccnc(C(=O)N[C@]2(C)C[C@H]3CN(c4cnc(-c5cc(-c6cnn(C)c6)cn6ncc(C#N)c56)cn4)C[C@H]3C2)c1` [Example 149, N-((3aR,5s,6aS)-2-(5-(3-cyano-6-(1-methyl-1H-pyrazol-4-yl)pyrazolo[1,5-a]pyridin-4-yl)pyrazin-2-yl)-5-methyloctahydrocyclopenta[c]pyrrol-5-yl)-4-methoxypicolinamide] were, in that order, no more than 10 nM and no more than 10 nM.
As to `CCOc1cc(-c2ccc(N3C4CC5CC3CC(NC(=O)c3ccc(OC)nc3)(C5)C4)nc2)c2c(C#N)cnn2c1` [Example 139, N-((1R,3S,5s,7s)-2-(5-(3-cyano-6-ethoxypyrazolo[1,5-a]pyridin-4-yl)pyridin-2-yl)-2-azaadamantan-5-yl)-6-methoxynicotinamide], on human RET kinase, the IC50 is no more than 10 nM. Further, the GI50 on BAF3-KIF5B-RET cells was in the range of 50 to 100 nM.
The molecule `COc1ccc(CN2[C@@H]3CC[C@H]2[C@H]2CN(c4ccc(-c5cc(-c6cnn(C)c6)cn6ncc(C#N)c56)cn4)C[C@H]23)cn1` [Example 118, 4-(6-((3aR,4S,7R,7aS)-8-((6-methoxypyridin-3-yl)methyl)hexahydro-1H-4,7-epiminoisoindol-2(3H)-yl)pyridin-3-yl)-6-(1-methyl-1H-pyrazol-4-yl)pyrazolo[1,5-a]pyridine-3-carbonitrile] gave an IC50 on human RET kinase of no more than 10 nM. In addition, the GI50 on BAF3-KIF5B-RET cells is 10 to 50 nM.
The like results for `Cn1ccc(-c2cc(-c3ccc(N4C[C@@H]5C[C@@](O)(Cc6ccccn6)C[C@@H]5C4)nc3)c3c(C#N)cnn3c2)n1` [Example 105, 4-(6-((3aR,5r,6aS)-5-hydroxy-5-(pyridin-2-ylmethyl)hexahydrocyclopenta[c]pyrrol-2(1H)-yl)pyridin-3-yl)-6-(1-methyl-1H-pyrazol-3-yl)pyrazolo[1,5-a]pyridine-3-carbonitrile] were, in that order, no more than 10 nM and 10 to 50 nM.
Consider `Cn1cc(-c2cc(-c3cnc(N4C[C@@H]5C[C@@](C)(NC(=O)c6ccnc(C(F)(F)F)c6)C[C@@H]5C4)cn3)c3c(C#N)cnn3c2)cn1` [Example 147, N-((3aR,5s,6aS)-2-(5-(3-cyano-6-(1-methyl-1H-pyrazol-4-yl)pyrazolo[1,5-a]pyridin-4-yl)pyrazin-2-yl)-5-methyloctahydrocyclopenta[c]pyrrol-5-yl)-2-(trifluoromethyl)isonicotinamide], for which, on human RET kinase, the IC50 was no more than 10 nM. For the same molecule, the GI50 on BAF3-KIF5B-RET cells was in the range of 10 to 50 nM.
The like results for `COc1ccc(C(=O)N[C@]2(C)C[C@H]3CN(c4cnc(-c5cc(-c6cnn(C)c6)cn6ncc(C#N)c56)cn4)C[C@H]3C2)cn1` [Example 145, N-((3aR,5s,6aS)-2-(5-(3-cyano-6-(1-methyl-1H-pyrazol-4-yl)pyrazolo[1,5-a]pyridin-4-yl)pyrazin-2-yl)-5-methyloctahydrocyclopenta[c]pyrrol-5-yl)-6-methoxynicotinamide] were, in that order, no more than 10 nM and no more than 10 nM.
The like results for `COc1cccc(C(=O)NC[C@@H]2[C@H]3CN(c4ccc(-c5cc(-c6cnn(C)c6)cn6ncc(C#N)c56)cn4)C[C@@H]23)n1` [Example 195, N-(((1R,5S,6s)-3-(5-(3-cyano-6-(1-methyl-1H-pyrazol-4-yl)pyrazolo[1,5-a]pyridin-4-yl)pyridin-2-yl)-3-azabicyclo[3.1.0]hexan-6-yl)methyl)-6-methoxypicolinamide] were, in that order, no more than 10 nM and no more than 10 nM.
The like results for `Cn1cc(-c2cc(-c3ccc(N4C[C@@H]5C[C@@](O)(Cc6ccccn6)C[C@@H]5C4)nc3)c3c(C#N)cnn3c2)cn1` [Example 158, 4-(6-((3aR,5r,6aS)-5-hydroxy-5-(pyridin-2-ylmethyl)hexahydrocyclopenta[c]pyrrol-2(1H)-yl)pyridin-3-yl)-6-(1-methyl-1H-pyrazol-4-yl)pyrazolo[1,5-a]pyridine-3-carbonitrile] were, in that order, no more than 10 nM and 10 to 50 nM.
On to `CC(C)(O)COc1cc(-c2cnc(N3C[C@@H]4[C@@H](CNC(=O)c5c(F)cccc5Cl)[C@@H]4C3)cn2)c2c(C#N)cnn2c1` [Example 154, 2-chloro-N-(((1R,5S,6s)-3-(5-(3-cyano-6-(2-hydroxy-2-methylpropoxy)pyrazolo[1,5-a]pyridin-4-yl)pyrazin-2-yl)-3-azabicyclo[3.1.0]hexan-6-yl)methyl)-6-fluorobenzamide], for which the IC50 against human RET kinase was no more than 10 nM. Further, at BAF3-KIF5B-RET cells, the GI50 was in the range of 10 to 50 nM.

What is called IC50 is the point on the concentration scale where inhibition reaches its midpoint. High values mean weaker potency in that assay, low ones greater potency in that assay.
